Laboratory results: US10238656B2, “Combination therapy for cancer” (Eli Lilly and Company, priority 2014, dated 2019)
Values joined by “and” are separate entries in the source; they are usually repeats but may differ in a detail not shown here. Equal values may be shown once.

Tests used:
[1] = system: NCI-H441 xenograft tumors; test: Antitumor efficacy in NCI-H441 xenograft model, Study 1; type: in vivo, female Hsd athymic nude mice
Text: (§1) Grow the human NSCLC line NCI-H441 or NCI-H2122 in RPMI 1640 medium+10% fetal bovine serum. Harvest sub-confluent cells with trypsin and rinse twice with growth medium without serum. For subcutaneous tumors, initiate growth by subcutaneous injection of 5×10^6 cells in a 1:1 mixture of Hank's balanced salt solution (HBSS) and Matrigel (BD Bioscience, Franklin Lakes, N.J.) in the rear flank of each subject animal. When mean tumors volumes reach approximately 150-200 mm^3 in size, randomize the animals by tumor size and body weight by randomization techniques well known in the art and place into their respective treatment groups using the number of animals per group as indicated.
Capture tumor size and body weight using Web Director. Estimate tumor volume (V) by using the formula: V=0.536L×W^2 where L=larger of measured diameter and W=smaller of perpendicular diameter. Transform the tumor volume data to a log scale to equalize variance across time and treatment groups. Analyze the log volume data with a two-way repeated measures analysis of variance by time and treatment using the MIXED procedures in SAS software (Version 9.3). The correlation model for the repeated measures is Spatial Power. Compare treated groups compared to the control group at each time point. Use the MIXED procedure also separately for each treatment group to calculate adjusted means and standard errors at each time point. Both analyses account for the autocorrelation within each animal and the loss of data that occurred when animals with large tumors were removed from the study early. Plot the adjusted means and standard errors for each treatment group versus time. Calculate relative changes in tumor volume (% T/C) using the tumor volume measurements taken nearest to the last day of dosing with Compound A, whereas the baseline tumor volume is the volume recorded on or just prior to first day of dosing. Calculate % T/C values using the formula % T/C=100×ΔT/ΔC, whereby T=mean tumor volume of the compound treated group, ΔT=mean tumor volume of the compound treated group minus the mean tumor volume on the baseline day, C=mean tumor volume of the control (vehicle) group, and ΔC=mean tumor volume of the control group minus the mean tumor volume on the baseline day. Tumor growth inhibition is observed in those instances where the calculated values for % T/C are less than 100% whereby greater inhibition results in smaller % T/C values. If ΔT was <0, then a tumor regression value was calculated instead of % T/C whereby % Regression=100×ΔT/Tinitial such that Tinitial=the grand mean of the tumor volume for all the treatment groups. Any negative values for % T/C listed are values for % Regression. […]

[2] = Body weight (tolerability), NCI-H441 xenograft Study 1; type: in vivo, female Hsd athymic nude mice; settings: baseline (day 14) versus day 42
Procedure: (§2) Assess antitumor efficacy of the combination of DC101 and Compound A by measuring tumor volume by three dimensional caliper measurements twice a week during the course of the study. Measure body weight twice weekly during the course of the study, as a general indicator of tolerability.
(§3) Treat female Hsd athymic nude mice (n=8) bearing NCI-H441 xenograft tumors with Compound A by oral gavage once daily for 28 days at a dose of 50 or 100 mg/kg using 0.2 mL/dose. Administer Compound A starting after the mean tumor volumes reach approximately 150-200 mm^3 in size (day 15 after tumor implantation) and end treatment 28 days later (on day 42). Measure tumor volume and body weight twice a week for the duration of the treatment period.
(§4) Treat female Hsd athymic nude mice (n=8) bearing NCI-H441 xenograft tumors with DC101 twice weekly for four weeks by intraperitoneal injection at doses of 10, 20 or 40 mg/kg. Administer DC101 starting after the mean tumor volumes reach approximately 150-200 mm^3 in size (day 15 after tumor implantation) and end on day 39. Measure tumor volume and body weight twice a week for the duration of the treatment period.
Treat female Hsd athymic nude mice (n=8) bearing NCI-H441 xenograft tumors with Compound A by oral gavage once daily for 28 days at a dose of 50 mg/kg using 0.2 mL/dose and intraperitoneal inject DC101 twice weekly at a dose of 20 mg/kg. […]

[3] = system: NCI-H441 xenograft tumors; test: Antitumor efficacy in NCI-H441 xenograft model, Study 2; type: in vivo, female Hsd athymic nude mice
Text: as §1
Capture tumor size and body weight using Web Director. Estimate tumor volume (V) by using the formula: V=0.536L×W^2 where L=larger of measured diameter and W=smaller of perpendicular diameter. Transform the tumor volume data to a log scale to equalize variance across time and treatment groups. Analyze the log volume data with a two-way repeated measures analysis of variance by time and treatment using the MIXED procedures in SAS software (Version 9.3). The correlation model for the repeated measures is Spatial Power. Compare treated groups compared to the control group at each time point. Use the MIXED procedure also separately for each treatment group to calculate adjusted means and standard errors at each time point. Both analyses account for the autocorrelation within each animal and the loss of data that occurred when animals with large tumors were removed from the study early. Plot the adjusted means and standard errors for each treatment group versus time. Calculate relative changes in tumor volume (% T/C) using the tumor volume measurements taken nearest to the last day of dosing with Compound A, whereas the baseline tumor volume is the volume recorded on or just prior to first day of dosing. Calculate % T/C values using the formula % T/C=100×ΔT/ΔC, whereby T=mean tumor volume of the compound treated group, ΔT=mean tumor volume of the compound treated group minus the mean tumor volume on the baseline day, C=mean tumor volume of the control (vehicle) group, and ΔC=mean tumor volume of the control group minus the mean tumor volume on the baseline day. Tumor growth inhibition is observed in those instances where the calculated values for % T/C are less than 100% whereby greater inhibition results in smaller % T/C values. If ΔT was <0, then a tumor regression value was calculated instead of % T/C whereby % Regression=100×ΔT/Tinitial such that Tinitial=the grand mean of the tumor volume for all the treatment groups. Any negative values for % T/C listed are values for % Regression.
as §2
Formulations for Compound A and DC101: Formulate Compound A on a weekly basis in 1% hydroxyethyl cellulose (HEC) in 25 mM phosphate buffer (PB) at a pH of 2 and store at 4° C. Solubilize DC101 in phosphate buffered saline and store at 4° C.
Control Group: administer to the animals in the control group, both vehicles used for Compound A and DC101 according to the same schedules for each compound, respectively.
For the monotherapy groups, treat the animals with the desired compound as directed and with the vehicle for the compound not being dosed by following the schedule for the non-dosed compound.
Treat female Hsd athymic nude mice (n=7) bearing NCI-H441 xenograft tumors with Compound A by oral gavage (PO) once daily for 28 days at a dose of 50 or 75 mg/kg using 0.2 mL/dose. Administer Compound A starting after the mean tumor volumes reach approximately 150-200 mm^3 in size (day 36 after tumor implantation) and end treatment 28 days later (on day 63). […]

[4] = Body weight (tolerability), NCI-H441 xenograft Study 2; type: in vivo, female Hsd athymic nude mice
Procedure: as §2
as §3, with “mice (n=7)” for “mice (n=8)”, “gavage (PO)” for “gavage”, “or 75” for “or 100”, “(day 36” for “(day 15”, “day 63).” for “day 42).”
as §4, with “mice (n=7)” for “mice (n=8)”, “at a dose” for “at doses of 10,”, “20” for “20 or 40”, “(day 36” for “(day 15”, “tumor implantation).” for “tumor implantation) and end on day 39.”
Treat female Hsd athymic nude mice (n=7) bearing NCI-H441 xenograft tumors with Compound A by oral gavage once daily for 28 days at a dose of 50 mg/kg or 75 mg/kg using 0.2 mL/dose and intraperitoneal inject DC101 twice weekly at a dose of 20 mg/kg. […]

[5] = system: NCI-H2122 xenograft tumors; test: Antitumor efficacy in NCI-H2122 xenograft model; type: in vivo, female Hsd athymic nude mice; settings: Day 45
Text: as §1
Capture tumor size and body weight using Web Director. Estimate tumor volume (V) by using the formula: V=0.536L×W^2 where L=larger of measured diameter and W=smaller of perpendicular diameter. Transform the tumor volume data to a log scale to equalize variance across time and treatment groups. […] Calculate relative changes in tumor volume (% T/C) using the tumor volume measurements taken nearest to the last day of dosing with Compound A, whereas the baseline tumor volume is the volume recorded on or just prior to first day of dosing. […] Tumor growth inhibition is observed in those instances where the calculated values for % T/C are less than 100% whereby greater inhibition results in smaller % T/C values. […]

[6] = Body weight (tolerability), NCI-H2122 xenograft study; type: in vivo, female Hsd athymic nude mice; settings: Compound A 50 or 75 mg/kg monotherapy
Procedure: as §2
as §3, with “bearing NCI-H2122” for “bearing NCI-H441”, “gavage (PO)” for “gavage”, “or 75” for “or 100”, “(day 16” for “(day 15”, “treatment on” for “treatment 28 days later (on”, “day 43.” for “day 42).”
Treat female Hsd athymic nude mice (n=8) bearing NCI-H2122 xenograft tumors with DC101 by intraperitoneal injection at a dose 20 mg/kg. Administer DC101 starting after the mean tumor volumes reach approximately 150-200 mm^3 in size (day 16 after tumor implantation) and continue twice weekly for four weeks. Measure tumor volume and body weight twice a week for the duration of the treatment period.
Treat female Hsd athymic nude mice (n=8) bearing NCI-H2122 xenograft tumors with Compound A by oral gavage (PO) once daily for 28 days at a dose of 50 or 75 mg/kg using 0.2 mL/dose and intraperitoneal inject DC101 twice weekly at a dose of 20 mg/kg. […]

Stage IV NSCLC = test: Phase 1b study of abemaciclib in combination with ramucirumab, tumor response; type: in vivo, human; set-up: key: PR is partial response;; SD is stable disease;; PD is progressive disease;; NDR is no data reported; settings: preliminary
Procedure: This study is a multicenter, nonrandomized, open-label, dose-escalation Phase 1b study of oral dosing of [5-(4-ethyl-piperazin-1-ylmethyl)-pyridin-2-yl]-[5-fluoro-4-(7-fluoro-3-isopropyl-2-methyl-3H-benzoimidazol-5-yl)-pyrimidin-2-yl]-amine at 100 mg, 150 mg, or 200 mg every 12 (±3) hours on Days 1 through 21 of a 21-day cycle. in combination with ramucirumab administered at 10 mg/kg over a 60-minute IV infusion followed by a 1-hour observation period on Day 1 of a 21-day cycle for patients with Stage IV NSCLC.
The primary objective of this study is to evaluate the safety and tolerability of [5-(4-ethyl-piperazin-1-ylmethyl)-pyridin-2-yl]-[5-fluoro-4-(7-fluoro-3-isopropyl-2-methyl-3H-benzoimidazol-5-yl)-pyrimidin-2-yl]-amine when administered orally in combination with ramucirumab to patients with Stage IV NSCLC using Common Terminology Criteria for Adverse Events (CTCAE version 4.0, NCI 2009).
The secondary objectives of the study are to document the antitumor activity of [5-(4-ethyl-piperazin-1-ylmethyl)-pyridin-2-yl]-[5-fluoro-4-(7-fluoro-3-isopropyl-2-methyl-3H-benzoimidazol-5-yl)-pyrimidin-2-yl]-amine when given in combination with ramucirumab; to determine the pharmacokinetics (PK) of [5-(4-ethyl-piperazin-1-ylmethyl)-pyridin-2-yl]-[5-fluoro-4-(7-fluoro-3-isopropyl-2-methyl-3H-benzoimidazol-5-yl)-pyrimidin-2-yl]-amine when given in combination with ramucirumab; and to characterize changes in patient-reported pain and disease-related symptoms collected via the MD Anderson Symptom Inventory-Lung Cancer (MDASI-LC).
[5-(4-Ethyl-piperazin-1-ylmethyl)-pyridin-2-yl]-[5-fluoro-4-(7-fluoro-3-isopropyl-2-methyl-3H-benzoimidazol-5-yl)-pyrimidin-2-yl]-amine is supplied as capsules at 100 mg, 150 mg, or 200 mg for oral administration.
Ramucirumab is supplied in a sterile, preservative-free solution for infusion of ramucirumab formulated in an aqueous solution at a concentration of […] (500 mg/50-mL vial). The buffer contains 10 mM histidine, 75 mM sodium chloride, 133 mM glycine, and 0.01% polysorbate 80, pH 6.0. Ramucirumab is supplied in single-use 50-mL nominal volume glass vials.
The first dose of ramucirumab is dependent upon the patient's baseline body weight in kilograms. Subsequent doses of ramucirumab must be recalculated if there is a ≥10% change (increase or decrease) in body weight from last dose calculation; subsequent doses may be recalculated if there is a <10% change (increase or decrease) in body weight from last dose calculation.

[7] = Compound A 50 mg/kg monotherapy, end of treatment period
[8] = Compound A 50 mg/kg monotherapy
[9] = Compound A 75 mg/kg monotherapy
[10] = abemaciclib 150 mg every 12 hours + ramucirumab 10 mg/kg IV Day 1 of 21-day cycle, individual patients 1-3
[11] = abemaciclib 200 mg every 12 hours + ramucirumab 10 mg/kg IV Day 1 of 21-day cycle, individual patients 4-8

CCN1CCN(Cc2ccc(Nc3ncc(F)c(-c4cc(F)c5nc(C)n(C(C)C)c5c4)n3)nc2)CC1.CS(=O)(=O)O [Compound A, [5-(4-Ethyl-piperazin-1-ylmethyl)-pyridin-2-yl]-[5-fluoro-4-(7-fluoro-3-isopropyl-2-methyl-3H-benzoimidazol-5-yl)-pyrimidin-2-yl]-amine methanesulfonate]
partial response (animals) [1, 7]: 6/8
stable disease (animals) [1, 7]: 2/8
partial response (animals) ([1]; Compound A 100 mg/kg monotherapy, end of treatment period): 8/8
mean percent regression ([1]; Compound A 100 mg/kg oral gavage once daily 28 days, study day 42): −22.8%
maximum relative body weight loss ([2]; Compound A 50 mg/kg): 2.7%
maximum relative body weight loss ([2]; Compound A 100 mg/kg): 4.7%
% T/C ([3]; Compound A 50 mg/kg PO once daily 28 days, Day 67): 7.0%
combined frequency for stable disease and partial response (disease control rate) [3, 8]: 4/7
mice achieving complete regression [3, 8]: 2/7
regression ([3]; Compound A 75 mg/kg PO once daily 28 days, Day 67): −4.8%
combined frequency for stable disease and partial response (disease control rate) [3, 9]: 6/7
mice achieving complete regression [3, 9]: 3/7
maximum relative body weight loss [4, 8]: 5.5%
maximum relative body weight loss [4, 9]: 5.1%
% T/C ([5]; Compound A 50 mg/kg PO once daily 28 days): 64.3%
% T/C ([5]; Compound A 75 mg/kg PO once daily 28 days): 37.3%
changes in relative body weight [6]: not statistically different from the control group

CCN1CCN(Cc2ccc(Nc3ncc(F)c(-c4cc(F)c5nc(C)n(C(C)C)c5c4)n3)nc2)CC1 [abemaciclib, [5-(4-Ethyl-piperazin-1-ylmethyl)-pyridin-2-yl]-[5-fluoro-4-(7-fluoro-3-isopropyl-2-methyl-3H-benzoimidazol-5-yl)-pyrimidin-2-yl]-amine]
Overall Response (Stage IV NSCLC; [10]): SD and PR and PD
Target Response (Stage IV NSCLC; [10]): SD and PR
Overall Response (Stage IV NSCLC; [11]): SD (3×) and PD and PR
Target Response (Stage IV NSCLC; [11]): SD (2×) and PD and PR
